# Source: PubChem BioAssay (NCI)
# Values joined by “and” are separate entries in the source; they are usually repeats but may differ in a detail not shown here. Identical values can stand only once.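 In this assay, cells in 96-well plates receive the compound at five concentrations for 48 hours. Endpoints are linearly interpolated between the surrounding concentrations. GI50 marks 50% less growth. Definition used: TGI = concentration required for complete inhibition of growth.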
# Tests used:
# Test in all cases: NCI tumour cell line growth inhibition, 48 h
# M19-MEL melanoma = tested on: M19-MEL melanoma
# DMS 273 small cell lung = tested on: DMS 273 small cell lung
# SNB-78 CNS = tested on: SNB-78 CNS
# HOP-18 NSCLC = tested on: HOP-18 NSCLC
# DU-145 prostate = tested on: DU-145 prostate
# MCF7 breast = tested on: MCF7 breast
# BT-549 breast = tested on: BT-549 breast
# T-47D breast = tested on: T-47D breast
# MDA-MB-435 = tested on: MDA-MB-435
# NCI/ADR-RES ovarian = tested on: NCI/ADR-RES ovarian
smiles,measurement,setting,value
COC(=O)[C@H]1[C@H]2C[C@@H]3c4[nH]c5cc(OC)ccc5c4CCN3C[C@H]2C[C@@H](OC(=O)c2cc(OC)c(OC)c(OC)c2)[C@@H]1OC,TGI,M19-MEL melanoma,50 µM
same,TGI,DMS 273 small cell lung,51.8 µM
CN(C)c1ccc2c(c1)CN1C(=O)c3ccccc3C1=N2,GI50,DMS 273 small cell lung,> 100 µM
same,TGI,DMS 273 small cell lung,> 100 µM
same,GI50,SNB-78 CNS,> 100 µM
same,TGI,SNB-78 CNS,> 100 µM
same,GI50,HOP-18 NSCLC,6.02 µM
same,TGI,HOP-18 NSCLC,> 100 µM
COc1ccc(CN2C(=O)C(Cc3cc(OC)c(OC)c(C)c3OC)NC(=O)/C2=C/c2cc(OC)c(OC)c(C)c2OC)cc1 (centres undefined),TGI,M19-MEL melanoma,37.7 µM
same,TGI,HOP-18 NSCLC,65.2 µM
CC1(C)OC(=O)[C@@](C)([C@H](O)c2ccccc2)O1,TGI,M19-MEL melanoma,> 100 µM
same,TGI,DMS 273 small cell lung,> 100 µM
same,TGI,SNB-78 CNS,> 100 µM
O=C(c1ccccc1)C(c1ccccc1)C1(O)C(=O)Nc2ccccc21 (centres undefined),TGI,M19-MEL melanoma,> 100 µM
same,TGI,DMS 273 small cell lung,> 100 µM
same,TGI,SNB-78 CNS,> 100 µM
CC(C)N(C(=O)C12C3C4C5C3C1(C(=O)N(C(C)C)C(C)C)C5(C#N)C42)C(C)C (centres undefined),TGI,M19-MEL melanoma,> 100 µM
same,TGI,DMS 273 small cell lung,> 100 µM
same,TGI,SNB-78 CNS,> 100 µM
same,TGI,HOP-18 NSCLC,> 100 µM
O=C(C/C(=N\NC(=O)C[n+]1ccccc1)C(=O)Nc1nc2ccc([N+](=O)[O-])cc2s1)CC(c1ccccc1)c1c(O)c2ccccc2oc1=O (centres undefined),TGI,M19-MEL melanoma,> 100 µM
CC(C)(C)N/N=C(\Cc1occc(=O)c1O)C(=O)Nc1ccc([N+](=O)[O-])cc1[N+](=O)[O-],TGI,M19-MEL melanoma,> 100 µM
same,TGI,DMS 273 small cell lung,> 100 µM
same,TGI,SNB-78 CNS,> 100 µM
same,TGI,HOP-18 NSCLC,> 100 µM
CC(=O)OCCOCNC(=S)N/N=C/c1ccc2ccccc2n1,TGI,M19-MEL melanoma,> 100 µM
same,TGI,DMS 273 small cell lung,> 100 µM
same,TGI,SNB-78 CNS,> 100 µM
same,TGI,HOP-18 NSCLC,> 100 µM
C=C[C@@]1(C)CCC2(O)C(CCC3C2(C)CCC[C@@]3(C)COC(=O)CC(=O)OC)C1 (some centres undefined),TGI,SNB-78 CNS,68.9 µM
Nc1ncnc2c1ncn2C1OC(CSC(F)(F)F)C(O)C1O (centres undefined),TGI,M19-MEL melanoma,> 100 µM
same,TGI,DMS 273 small cell lung,> 100 µM
same,TGI,SNB-78 CNS,> 100 µM
same,TGI,HOP-18 NSCLC,> 100 µM
COc1ccc(C2=Nc3ccccc3SC(C)C2)cc1 (centres undefined),TGI,M19-MEL melanoma,> 100 µM
same,TGI,DMS 273 small cell lung,> 100 µM
same,TGI,SNB-78 CNS,> 100 µM
CN1C(OCc2ccccc2)c2c(ccc3c2OCO3)C2C=Cc3cc4c(cc3C21)OCO4 (centres undefined),TGI,M19-MEL melanoma,0.361 µM
same,TGI,SNB-78 CNS,2.04 µM
same,TGI,HOP-18 NSCLC,2.61 µM
CCOC(=O)c1cc(/C=C/C(C)=C/C(=O)OC)oc1-c1ccccc1,TGI,M19-MEL melanoma,> 100 µM
same,TGI,DMS 273 small cell lung,> 100 µM
same,TGI,HOP-18 NSCLC,> 100 µM
[N-]=[N+]=Nc1ccc(CCN2CCN(c3cccc(C(F)(F)F)c3)CC2)cc1I,TGI,M19-MEL melanoma,> 100 µM
same,TGI,DMS 273 small cell lung,> 100 µM
same,TGI,SNB-78 CNS,> 100 µM
N#CNC(N)=NCCO,TGI,M19-MEL melanoma,> 100 µM
same,TGI,DMS 273 small cell lung,> 100 µM
same,TGI,SNB-78 CNS,> 100 µM
same,TGI,HOP-18 NSCLC,> 100 µM
CC1(C)C(c2ccccc2)=NN(O)c2ccccc21,TGI,M19-MEL melanoma,> 100 µM
same,TGI,DMS 273 small cell lung,> 100 µM
same,TGI,SNB-78 CNS,> 100 µM
same,TGI,HOP-18 NSCLC,> 100 µM
Cc1ccc(C2CC(c3ccc([N+](=O)[O-])cc3)=Nc3ccccc3S2)cc1 (centres undefined),TGI,M19-MEL melanoma,45 µM
same,TGI,HOP-18 NSCLC,> 100 µM
O=C1c2cccc3cc([N+](=O)[O-])cc(c23)C(=O)N1NC1=NCCN1,TGI,M19-MEL melanoma,> 100 µM
same,TGI,DMS 273 small cell lung,> 100 µM
same,TGI,SNB-78 CNS,> 100 µM
same,TGI,HOP-18 NSCLC,> 100 µM
C=CCC1C(=O)C(C(=O)OC)N2CCc3c([nH]c4ccccc34)C12 (centres undefined),TGI,M19-MEL melanoma,> 100 µM
CCCN(CCCN)/[N+]([O-])=N\O,TGI,M19-MEL melanoma,> 100 µM
same,TGI,DMS 273 small cell lung,> 100 µM
same,TGI,SNB-78 CNS,> 100 µM
same,TGI,HOP-18 NSCLC,> 100 µM
COC(=O)C1CC(=O)CCC1c1ccccc1 (centres undefined),TGI,M19-MEL melanoma,> 100 µM
same,TGI,DMS 273 small cell lung,> 100 µM
same,TGI,SNB-78 CNS,> 100 µM
same,TGI,HOP-18 NSCLC,> 100 µM
O=C(O)C1CCc2nnc(-c3ccccc3)n21 (centres undefined),TGI,M19-MEL melanoma,> 100 µM
same,TGI,DMS 273 small cell lung,> 100 µM
same,TGI,SNB-78 CNS,> 100 µM
same,TGI,HOP-18 NSCLC,> 100 µM
Cc1ccc(NC(=O)CC/C(CC(=O)C(C)(C)C)=N/NC(=O)C(N)=O)cc1C,TGI,M19-MEL melanoma,> 100 µM
same,TGI,DMS 273 small cell lung,> 100 µM
same,TGI,SNB-78 CNS,> 100 µM
same,TGI,HOP-18 NSCLC,> 100 µM
CCC1=C(C)/C(=C/c2[nH]c(C(Br)Br)c(CC)c2C)N=C1C(Br)Br,TGI,M19-MEL melanoma,79.1 µM
same,TGI,SNB-78 CNS,> 100 µM
same,TGI,HOP-18 NSCLC,> 100 µM
NC(N)=NS(=O)(=O)c1ccc(Nc2c3ccccc3nc3c(C(=O)N4CCN(CCO)CC4)cccc23)cc1,TGI,M19-MEL melanoma,> 100 µM
same,TGI,DMS 273 small cell lung,> 100 µM
same,TGI,SNB-78 CNS,> 100 µM
same,TGI,HOP-18 NSCLC,> 100 µM
Cc1nc2ccccc2c(=O)n1/N=C(\N=Nc1cc(Cl)ccc1Cl)c1cccc(-c2ccco2)c1,TGI,M19-MEL melanoma,> 100 µM
same,TGI,DMS 273 small cell lung,> 100 µM
same,TGI,HOP-18 NSCLC,> 100 µM
CNC(=S)N/N=C1\CC(c2ccccc2)Oc2ccccc21 (centres undefined),TGI,M19-MEL melanoma,> 100 µM
same,TGI,DMS 273 small cell lung,> 100 µM
same,TGI,SNB-78 CNS,> 100 µM
C[C@@H](C1CCC2C3C(=CC(=O)[C@@]21C)[C@H](C)[C@]1(CCC(=O)O1)C1OC31)[C@H]1C[C@]2(C)O[C@@](C)(O1)OC2(C)C (some centres undefined),TGI,M19-MEL melanoma,> 100 µM
same,TGI,DMS 273 small cell lung,> 100 µM
same,TGI,HOP-18 NSCLC,> 100 µM
N=CCCN(CCC=N)c1ccc(/C=C2\CN(NC(=O)c3ccc(Cl)cc3)C(c3ccccc3)=N2)cc1,TGI,DMS 273 small cell lung,> 100 µM
same,TGI,SNB-78 CNS,> 100 µM
same,TGI,HOP-18 NSCLC,> 100 µM
[C-]#[O+].[Cl][Sn]([Cl])[Cl].[Cl][Sn]([Cl])[Cl].[Pt].c1ccc([PH+](c2ccccc2)c2ccccc2)cc1.c1ccc([PH+](c2ccccc2)c2ccccc2)cc1,GI50,M19-MEL melanoma,41 µM
same,TGI,M19-MEL melanoma,> 100 µM
same,GI50,DMS 273 small cell lung,46.1 µM
same,TGI,DMS 273 small cell lung,> 100 µM
same,GI50,SNB-78 CNS,> 100 µM
same,TGI,SNB-78 CNS,> 100 µM
same,GI50,HOP-18 NSCLC,25.3 µM
same,TGI,HOP-18 NSCLC,90 µM
COc1cc(=O)oc(/C=C/C=O)c1C,TGI,M19-MEL melanoma,35.7 µM
same,TGI,DMS 273 small cell lung,32.8 µM
same,TGI,HOP-18 NSCLC,37.5 µM
C/C=C(\C)c1cc(=O)c2c(C)cc3c(c2o1)C(=O)c1c(O)c(C2CC(C)(N(C)C)C(O)C(C)O2)cc(C2CC(N(C)C)C(O)C(C)O2)c1C3=O (centres undefined),TGI,DU-145 prostate,5.75 µM
same,TGI,M19-MEL melanoma,16.1 µM
same,TGI,DMS 273 small cell lung,11.4 µM
same,TGI,SNB-78 CNS,50.6 µM
same,TGI,HOP-18 NSCLC,> 100 µM
same,TGI,MCF7 breast,14.5 µM and 8.8 µM
same,TGI,BT-549 breast,0.735 µM
same,TGI,T-47D breast,3.12 µM
same,TGI,MDA-MB-435,0.866 µM
Cc1cc(=O)n(-c2ccccc2)c(=O)o1,TGI,M19-MEL melanoma,> 100 µM
same,TGI,DMS 273 small cell lung,> 100 µM
same,TGI,SNB-78 CNS,> 100 µM
same,TGI,HOP-18 NSCLC,> 100 µM
O=C(CC(=O)c1ccc([N+](=O)[O-])cc1)C(=O)Nc1nccs1,TGI,DMS 273 small cell lung,> 100 µM
same,TGI,SNB-78 CNS,> 100 µM
same,TGI,HOP-18 NSCLC,> 100 µM
CC1=CCC2(C#N)CCC1C2O (centres undefined),TGI,M19-MEL melanoma,> 100 µM
same,TGI,DMS 273 small cell lung,> 100 µM
same,TGI,SNB-78 CNS,> 100 µM
same,TGI,HOP-18 NSCLC,> 100 µM
CC1(C)C(c2ccccc2)C12CCC1(C2=O)C(c2ccccc2)C1(C)C (centres undefined),TGI,M19-MEL melanoma,58.9 µM
same,TGI,DMS 273 small cell lung,45.3 µM
same,TGI,SNB-78 CNS,62.4 µM
NC(C/[N+]([O-])=N/O)C(=O)O (centres undefined),GI50,DU-145 prostate,173 µM
same,TGI,DU-145 prostate,> 500 µM
same,TGI,M19-MEL melanoma,> 373 µM
same,TGI,DMS 273 small cell lung,50.4 µM
same,TGI,SNB-78 CNS,> 500 µM
same,TGI,HOP-18 NSCLC,> 472 µM
same,GI50,MCF7 breast,1.2 µM and 4.17 µM and 1.15 µM
same,TGI,MCF7 breast,> 100 µM and 295 µM
same,GI50,BT-549 breast,4.46 µM and 9.57 µM and 9.78 µM
same,TGI,BT-549 breast,> 500 µM
same,TGI,NCI/ADR-RES ovarian,> 434 µM
same,GI50,T-47D breast,198 µM
same,TGI,T-47D breast,> 500 µM
same,GI50,MDA-MB-435,11.7 µM and 17.9 µM and 10.6 µM
same,TGI,MDA-MB-435,> 500 µM
O=S1CSCS1 (centres undefined),TGI,M19-MEL melanoma,> 100 µM
same,TGI,DMS 273 small cell lung,> 100 µM
same,TGI,SNB-78 CNS,> 100 µM
same,TGI,HOP-18 NSCLC,> 100 µM
